Assay results reported in ChEMBL document CHEMBL4507268 (2021).

Key:
[1] = molecular target: Aurora kinase B (Homo sapiens) (UniProt Q96GD4); conditions: Compound concentration 1.0 uM
[2] = molecular target: Calcium/calmodulin-dependent protein kinase type II subunit delta (Homo sapiens) (UniProt Q13557); conditions: Compound concentration 1.0 uM
[3] = molecular target: CDK3/cyclin E (Homo sapiens) (UniProt P24864+O96020+Q00526); conditions: Compound concentration 1.0 uM
[4] = molecular target: Homeodomain-interacting protein kinase 3 (Homo sapiens) (UniProt Q9H422); conditions: Compound concentration 1.0 uM
Homeodomain-interacting protein kinase 3 (Homo sapiens), sequence (Q9H422 whole entry, looked up): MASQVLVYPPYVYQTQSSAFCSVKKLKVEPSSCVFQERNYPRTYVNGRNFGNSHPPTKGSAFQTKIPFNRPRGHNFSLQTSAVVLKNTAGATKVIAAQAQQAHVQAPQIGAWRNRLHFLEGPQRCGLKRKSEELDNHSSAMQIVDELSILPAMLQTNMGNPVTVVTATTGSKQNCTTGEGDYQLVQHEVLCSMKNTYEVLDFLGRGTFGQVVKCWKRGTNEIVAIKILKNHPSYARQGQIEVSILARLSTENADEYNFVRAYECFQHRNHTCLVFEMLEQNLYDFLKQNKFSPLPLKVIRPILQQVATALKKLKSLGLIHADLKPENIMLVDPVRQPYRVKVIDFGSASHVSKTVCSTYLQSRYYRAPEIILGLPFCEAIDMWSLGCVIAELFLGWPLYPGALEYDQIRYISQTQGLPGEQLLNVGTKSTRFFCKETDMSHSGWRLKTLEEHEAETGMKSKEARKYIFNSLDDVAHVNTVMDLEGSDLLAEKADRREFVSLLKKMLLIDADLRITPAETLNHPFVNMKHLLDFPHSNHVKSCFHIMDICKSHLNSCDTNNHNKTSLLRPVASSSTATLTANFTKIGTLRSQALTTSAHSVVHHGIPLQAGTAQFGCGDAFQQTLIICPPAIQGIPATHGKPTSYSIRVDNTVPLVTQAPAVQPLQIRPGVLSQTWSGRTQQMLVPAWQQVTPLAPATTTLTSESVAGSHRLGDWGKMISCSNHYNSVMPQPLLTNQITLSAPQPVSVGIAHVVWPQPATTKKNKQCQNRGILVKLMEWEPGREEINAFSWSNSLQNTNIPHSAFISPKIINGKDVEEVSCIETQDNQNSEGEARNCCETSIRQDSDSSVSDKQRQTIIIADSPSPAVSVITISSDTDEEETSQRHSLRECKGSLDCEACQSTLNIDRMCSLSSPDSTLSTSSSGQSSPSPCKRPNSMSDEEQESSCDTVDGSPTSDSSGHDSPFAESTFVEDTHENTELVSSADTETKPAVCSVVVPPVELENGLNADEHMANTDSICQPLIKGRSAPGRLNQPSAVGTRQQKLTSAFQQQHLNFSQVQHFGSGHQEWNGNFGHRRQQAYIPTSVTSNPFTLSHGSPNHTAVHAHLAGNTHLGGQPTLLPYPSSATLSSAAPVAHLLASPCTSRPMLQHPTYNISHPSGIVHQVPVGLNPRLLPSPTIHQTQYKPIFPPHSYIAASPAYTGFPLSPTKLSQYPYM

[5] = molecular target: T1, MAP/microtubule affinity-regulating kinase 4 (Homo sapiens) (UniProt Q96L34); conditions: Compound concentration 1.0 uM
T1 sequence (whole entry): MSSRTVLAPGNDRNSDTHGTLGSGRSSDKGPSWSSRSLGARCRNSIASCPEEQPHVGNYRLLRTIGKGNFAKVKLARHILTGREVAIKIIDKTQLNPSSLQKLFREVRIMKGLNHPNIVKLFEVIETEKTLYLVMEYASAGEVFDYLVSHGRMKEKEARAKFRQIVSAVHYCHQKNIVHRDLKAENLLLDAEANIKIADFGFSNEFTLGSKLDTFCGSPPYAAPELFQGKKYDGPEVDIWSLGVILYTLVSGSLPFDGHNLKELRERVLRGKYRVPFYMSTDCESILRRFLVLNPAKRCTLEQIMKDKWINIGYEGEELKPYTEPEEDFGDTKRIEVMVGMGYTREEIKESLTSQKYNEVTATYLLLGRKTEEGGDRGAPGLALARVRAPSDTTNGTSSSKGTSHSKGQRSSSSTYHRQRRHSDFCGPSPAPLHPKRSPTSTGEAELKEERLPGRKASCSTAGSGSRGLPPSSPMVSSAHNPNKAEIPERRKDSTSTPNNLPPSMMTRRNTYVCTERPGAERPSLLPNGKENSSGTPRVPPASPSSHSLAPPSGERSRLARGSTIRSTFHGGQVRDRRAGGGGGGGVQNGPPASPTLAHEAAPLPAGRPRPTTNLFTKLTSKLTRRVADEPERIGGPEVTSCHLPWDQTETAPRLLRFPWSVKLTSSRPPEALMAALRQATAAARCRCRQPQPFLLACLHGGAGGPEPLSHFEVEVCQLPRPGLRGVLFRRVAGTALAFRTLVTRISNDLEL

[6] = molecular target: T2, Serine/threonine-protein kinase Nek11 (Homo sapiens) (UniProt Q8NG66); conditions: Compound concentration 1.0 uM
T2 sequence (whole entry): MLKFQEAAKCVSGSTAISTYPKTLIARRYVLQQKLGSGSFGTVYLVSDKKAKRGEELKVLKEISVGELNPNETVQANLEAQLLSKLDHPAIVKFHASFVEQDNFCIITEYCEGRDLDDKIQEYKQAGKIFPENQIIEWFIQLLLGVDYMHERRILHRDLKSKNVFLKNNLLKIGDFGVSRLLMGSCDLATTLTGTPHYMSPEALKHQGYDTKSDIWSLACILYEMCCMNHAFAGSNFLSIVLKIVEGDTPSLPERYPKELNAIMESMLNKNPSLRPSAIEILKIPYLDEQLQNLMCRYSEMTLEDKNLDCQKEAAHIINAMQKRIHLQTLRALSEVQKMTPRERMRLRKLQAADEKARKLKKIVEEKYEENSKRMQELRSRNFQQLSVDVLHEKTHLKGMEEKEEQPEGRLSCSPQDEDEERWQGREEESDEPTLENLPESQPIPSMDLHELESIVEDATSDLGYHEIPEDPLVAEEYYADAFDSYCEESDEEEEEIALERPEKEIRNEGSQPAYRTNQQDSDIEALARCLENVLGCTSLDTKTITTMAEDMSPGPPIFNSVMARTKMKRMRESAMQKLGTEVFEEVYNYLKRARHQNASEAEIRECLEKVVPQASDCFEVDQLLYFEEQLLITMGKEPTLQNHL

[7] = molecular target: PAS domain-containing serine/threonine-protein kinase (Homo sapiens) (UniProt Q96RG2); conditions: Compound concentration 1.0 uM
PAS domain-containing serine/threonine-protein kinase (Homo sapiens), sequence (Q96RG2 whole entry, the tested form may be a part): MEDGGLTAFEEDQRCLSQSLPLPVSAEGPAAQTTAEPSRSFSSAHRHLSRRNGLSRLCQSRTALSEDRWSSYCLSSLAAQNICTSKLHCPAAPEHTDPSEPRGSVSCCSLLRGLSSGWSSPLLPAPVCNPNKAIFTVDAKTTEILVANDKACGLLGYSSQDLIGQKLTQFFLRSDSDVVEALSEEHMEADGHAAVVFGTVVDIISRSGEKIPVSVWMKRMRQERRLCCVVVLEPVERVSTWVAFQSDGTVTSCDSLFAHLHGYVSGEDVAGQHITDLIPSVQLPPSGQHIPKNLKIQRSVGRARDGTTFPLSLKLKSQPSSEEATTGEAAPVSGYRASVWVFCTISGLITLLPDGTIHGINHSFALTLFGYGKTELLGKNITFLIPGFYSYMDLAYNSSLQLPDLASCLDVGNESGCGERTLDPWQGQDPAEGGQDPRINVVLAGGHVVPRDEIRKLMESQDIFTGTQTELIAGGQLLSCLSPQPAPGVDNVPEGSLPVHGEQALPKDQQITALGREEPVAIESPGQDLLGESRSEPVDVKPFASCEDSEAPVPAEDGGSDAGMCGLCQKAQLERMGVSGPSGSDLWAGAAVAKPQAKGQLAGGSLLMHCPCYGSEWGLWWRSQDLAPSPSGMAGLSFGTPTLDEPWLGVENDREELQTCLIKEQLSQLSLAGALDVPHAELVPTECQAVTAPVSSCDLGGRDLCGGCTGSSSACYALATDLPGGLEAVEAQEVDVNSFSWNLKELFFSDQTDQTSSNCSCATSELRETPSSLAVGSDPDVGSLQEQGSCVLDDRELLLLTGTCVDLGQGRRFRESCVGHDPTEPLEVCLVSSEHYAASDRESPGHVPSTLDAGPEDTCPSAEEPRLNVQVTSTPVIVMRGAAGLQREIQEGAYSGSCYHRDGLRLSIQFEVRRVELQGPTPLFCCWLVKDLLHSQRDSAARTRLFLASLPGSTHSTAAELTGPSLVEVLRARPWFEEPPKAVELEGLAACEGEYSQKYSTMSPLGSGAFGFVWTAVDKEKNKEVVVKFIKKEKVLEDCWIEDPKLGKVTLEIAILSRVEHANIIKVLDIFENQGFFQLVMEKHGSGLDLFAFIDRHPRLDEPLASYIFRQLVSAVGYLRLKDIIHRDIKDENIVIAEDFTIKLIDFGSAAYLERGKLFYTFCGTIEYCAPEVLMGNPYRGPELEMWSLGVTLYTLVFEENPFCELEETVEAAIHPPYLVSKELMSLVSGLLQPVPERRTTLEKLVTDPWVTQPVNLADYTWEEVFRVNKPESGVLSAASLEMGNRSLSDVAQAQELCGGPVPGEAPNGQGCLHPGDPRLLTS

[8] = molecular target: Tyrosine-protein kinase SYK (Homo sapiens) (UniProt P43405); conditions: Compound concentration 1.0 uM
[9] = molecular target: T3, Mitogen-activated protein kinase kinase kinase 7 (Homo sapiens) (UniProt O43318); conditions: Compound concentration 1.0 uM
T3 sequence (whole entry): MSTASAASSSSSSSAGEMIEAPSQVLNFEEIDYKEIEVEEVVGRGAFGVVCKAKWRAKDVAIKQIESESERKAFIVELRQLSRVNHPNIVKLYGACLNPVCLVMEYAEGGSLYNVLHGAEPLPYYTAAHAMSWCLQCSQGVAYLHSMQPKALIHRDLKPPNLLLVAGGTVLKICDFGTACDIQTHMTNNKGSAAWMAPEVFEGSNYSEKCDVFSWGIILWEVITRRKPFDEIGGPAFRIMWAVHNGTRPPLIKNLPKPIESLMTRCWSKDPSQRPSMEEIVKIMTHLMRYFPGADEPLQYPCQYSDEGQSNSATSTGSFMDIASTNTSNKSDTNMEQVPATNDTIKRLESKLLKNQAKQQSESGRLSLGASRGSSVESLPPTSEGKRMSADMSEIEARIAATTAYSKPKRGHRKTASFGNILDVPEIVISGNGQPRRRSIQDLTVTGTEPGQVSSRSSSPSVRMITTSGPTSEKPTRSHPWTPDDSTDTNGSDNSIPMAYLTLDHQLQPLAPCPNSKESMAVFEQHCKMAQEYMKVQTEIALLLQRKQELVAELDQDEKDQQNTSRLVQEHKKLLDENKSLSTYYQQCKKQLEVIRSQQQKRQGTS

[10] = molecular target: D(2) dopamine receptor (Homo sapiens) (UniProt P14416); conditions: Compound concentration 10.0 uM
D(2) dopamine receptor (Homo sapiens), sequence (P14416 whole entry): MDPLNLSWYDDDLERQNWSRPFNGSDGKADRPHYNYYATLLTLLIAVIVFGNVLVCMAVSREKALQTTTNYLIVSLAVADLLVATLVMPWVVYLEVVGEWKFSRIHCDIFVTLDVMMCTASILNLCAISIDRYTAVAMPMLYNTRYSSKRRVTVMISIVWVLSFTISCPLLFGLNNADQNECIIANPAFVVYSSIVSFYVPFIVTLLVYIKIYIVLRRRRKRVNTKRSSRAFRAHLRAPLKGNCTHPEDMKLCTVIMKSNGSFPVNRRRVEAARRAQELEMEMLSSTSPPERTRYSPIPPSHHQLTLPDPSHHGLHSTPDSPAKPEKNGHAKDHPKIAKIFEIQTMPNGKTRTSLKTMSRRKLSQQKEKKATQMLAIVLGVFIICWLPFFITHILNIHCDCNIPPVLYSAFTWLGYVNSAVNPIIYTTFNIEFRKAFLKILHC

Aurora kinase B (Homo sapiens), sequence (Q96GD4 whole entry): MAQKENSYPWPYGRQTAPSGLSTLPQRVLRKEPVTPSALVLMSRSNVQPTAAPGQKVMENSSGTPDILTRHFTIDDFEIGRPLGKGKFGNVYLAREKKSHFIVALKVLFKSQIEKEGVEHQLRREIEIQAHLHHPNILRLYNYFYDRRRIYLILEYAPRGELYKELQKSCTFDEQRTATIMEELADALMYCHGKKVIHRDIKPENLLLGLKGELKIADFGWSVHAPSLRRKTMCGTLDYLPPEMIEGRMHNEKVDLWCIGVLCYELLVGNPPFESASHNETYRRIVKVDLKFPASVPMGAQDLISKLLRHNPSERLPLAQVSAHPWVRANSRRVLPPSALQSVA
Calcium/calmodulin-dependent protein kinase type II subunit delta (Homo sapiens), sequence (Q13557 whole entry): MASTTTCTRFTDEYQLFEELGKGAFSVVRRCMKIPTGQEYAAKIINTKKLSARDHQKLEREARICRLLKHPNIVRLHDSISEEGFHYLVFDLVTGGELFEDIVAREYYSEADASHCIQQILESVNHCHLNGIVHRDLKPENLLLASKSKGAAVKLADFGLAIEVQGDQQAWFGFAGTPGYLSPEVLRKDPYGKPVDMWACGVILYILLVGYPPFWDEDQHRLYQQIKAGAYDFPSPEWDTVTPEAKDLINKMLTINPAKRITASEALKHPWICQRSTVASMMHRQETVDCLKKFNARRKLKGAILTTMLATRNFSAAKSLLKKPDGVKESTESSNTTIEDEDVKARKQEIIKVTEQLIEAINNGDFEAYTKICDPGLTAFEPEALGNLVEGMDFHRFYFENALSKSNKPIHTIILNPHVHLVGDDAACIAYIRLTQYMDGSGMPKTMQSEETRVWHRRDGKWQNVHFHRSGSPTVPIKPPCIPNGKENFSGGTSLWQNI
CDK3/cyclin E (Homo sapiens), sequence (O96020 whole entry, looked up): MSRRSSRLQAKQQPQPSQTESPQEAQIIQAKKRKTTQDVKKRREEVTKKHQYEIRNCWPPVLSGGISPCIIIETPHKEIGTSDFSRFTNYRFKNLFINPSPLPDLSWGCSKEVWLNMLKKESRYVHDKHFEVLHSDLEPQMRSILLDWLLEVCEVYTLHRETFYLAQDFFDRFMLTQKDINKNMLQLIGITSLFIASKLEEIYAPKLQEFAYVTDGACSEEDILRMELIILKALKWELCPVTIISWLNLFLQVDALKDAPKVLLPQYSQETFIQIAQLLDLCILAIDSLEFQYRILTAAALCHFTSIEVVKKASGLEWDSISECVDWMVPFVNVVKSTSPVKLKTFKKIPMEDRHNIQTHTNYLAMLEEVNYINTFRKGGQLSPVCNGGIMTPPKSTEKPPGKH
CDK3/cyclin E (Homo sapiens), sequence (P24864 whole entry, looked up): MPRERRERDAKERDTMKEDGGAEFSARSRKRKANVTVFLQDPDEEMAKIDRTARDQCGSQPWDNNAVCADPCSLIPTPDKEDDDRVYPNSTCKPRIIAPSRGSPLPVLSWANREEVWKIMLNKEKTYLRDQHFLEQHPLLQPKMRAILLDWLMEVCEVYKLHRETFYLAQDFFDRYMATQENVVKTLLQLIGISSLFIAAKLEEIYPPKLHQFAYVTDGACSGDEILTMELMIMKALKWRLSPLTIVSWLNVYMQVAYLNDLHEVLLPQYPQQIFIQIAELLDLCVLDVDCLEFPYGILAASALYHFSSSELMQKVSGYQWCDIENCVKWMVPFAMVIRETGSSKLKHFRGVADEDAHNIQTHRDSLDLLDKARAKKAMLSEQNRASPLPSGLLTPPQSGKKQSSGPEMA
CDK3/cyclin E (Homo sapiens), sequence (Q00526 whole entry, looked up): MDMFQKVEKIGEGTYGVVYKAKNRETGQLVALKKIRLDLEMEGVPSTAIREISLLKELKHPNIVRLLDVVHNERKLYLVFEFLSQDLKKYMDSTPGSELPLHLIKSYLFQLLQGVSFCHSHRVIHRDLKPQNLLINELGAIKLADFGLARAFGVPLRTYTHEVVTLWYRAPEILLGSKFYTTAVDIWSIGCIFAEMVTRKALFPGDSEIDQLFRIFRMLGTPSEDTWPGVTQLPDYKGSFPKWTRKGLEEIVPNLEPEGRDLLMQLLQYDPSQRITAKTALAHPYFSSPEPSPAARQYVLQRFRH

CN1CCN(c2cnc3c(C4CCN(C(=O)c5ccc(OC(F)(F)F)cc5N)CC4)ncnc3c2)CC1 [BAY-885]
inactive: % residual kinase activity [1] 94% | % residual kinase activity [2] 95% | % residual kinase activity [3] 106% | % residual kinase activity [4] 108% | % residual kinase activity [5] 100% | % residual kinase activity [6] 104% | % residual kinase activity [7] 107% | % residual kinase activity [8] 87% | % residual kinase activity [9] 107%

Cc1nc(C2CCN(C(=O)c3ccc(OC(F)(F)F)cc3N)CC2)c2ncc(N3CCN(C)CC3)cc2n1 [BAY-693]
inactive: inhibition [10] 2.97%
